Reference: article PMC11791039, “A split intein and split luciferase-coupled system for detecting protein-protein interactions” (Molecular Systems Biology, 2024)
“And” between values parts separate entries of the source, which are not always exact repeats. Equal entries are not always repeated.

What was measured:
Assay type in all cases: cell-based
[1] = molecular target: T1, EGFR(WT)/SHC1 (Homo sapiens, UniProt P00533); test: SIMPL2 assay EGFR(WT)/SHC1; details: replicates 1-4;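 also: 0% is no doxycycline or compound and 100% is doxycycline without compound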
T1 construct: β10-IN (tNLuc β10 peptide + GP41-1 split intein N fragment) (C); V5; expressed in transfected cells

[2] = molecular target: T2, EGFR(L858R)/SHC1 (Homo sapiens, UniProt P00533, L858R); test: SIMPL2 assay EGFR(L858R)/SHC1; details: replicates 1-4
T2 construct: β10-IN (tNLuc β10 peptide + GP41-1 split intein N fragment) (C); V5; expressed in transfected cells

[3] = molecular target: T1, EGFR(WT)/SHC1; test: Western blot of EGFR(WT)-SHC1 splicing; details: inhibitor 100 nM, 16 h
[4] = molecular target: T2, EGFR(L858R)/SHC1; test: Western blot of EGFR(L858R)-SHC1 splicing; details: inhibitor 100 nM, 16 h
[5] = molecular target: T3, control (Homo sapiens, UniProt P01116, G12C); test: SIMPL2 assay, control of Fig. 3B-D; details: replicates 1-4
T3 construct: IC-β9 (GP41-1 split intein C fragment + tNLuc β9 peptide) (N); FLAG; expressed in transfected cells
T3 sequence (P01116 1-185 isoform P01116-2 G12C limits assumed): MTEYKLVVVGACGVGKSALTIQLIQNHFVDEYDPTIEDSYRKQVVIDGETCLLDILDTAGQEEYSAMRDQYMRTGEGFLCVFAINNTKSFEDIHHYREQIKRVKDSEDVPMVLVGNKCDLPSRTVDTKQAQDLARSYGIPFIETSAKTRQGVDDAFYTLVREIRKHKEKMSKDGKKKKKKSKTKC

SMILES: COc1cc2ncnc(Nc3cccc(Cl)c3)c2cc1OC [AG1478]
- SIMPL2 signal, WT (Fig. 3B) ([1]; AG1478 6.4e-6 uM): 102.427 and 84.7059 and 104.371 and 106.871
- SIMPL2 signal, WT (Fig. 3B) ([1]; AG1478 3.2e-5 uM): 77.5953 and 99.0938 and 89.9278 and 95.7607
- SIMPL2 signal, WT (Fig. 3B) ([1]; AG1478 0.00016 uM): 73.3734 and 100.927 and 94.8163 and 93.2609
- SIMPL2 signal, WT (Fig. 3B) ([1]; AG1478 0.0008 uM): 88.6501 and 85.7058 and 98.1494 and 104.871
- SIMPL2 signal, WT (Fig. 3B) ([1]; AG1478 0.004 uM): 74.54 and 81.3728 and 67.2627 and 74.6511
- SIMPL2 signal, WT (Fig. 3B) ([1]; AG1478 0.02 uM): 70.0958 and 71.7624 and 65.6517 and 61.8742
- SIMPL2 signal, WT (Fig. 3B) ([1]; AG1478 0.1 uM): 65.485 and 59.9854 and 59.7632 and 57.8189
- SIMPL2 signal, WT (Fig. 3B) ([1]; AG1478 0.5 uM): 29.8764 and 30.6541 and 19.6549 and 21.0437
- SIMPL2 signal, L858R (Fig. 3B) ([2]; AG1478 6.4e-6 uM): 91.6588 and 97.6255 and 114.285 and 112.912
- SIMPL2 signal, L858R (Fig. 3B) ([2]; AG1478 3.2e-5 uM): 89.0187 and 76.3196 and 106.708 and 96.4903
- SIMPL2 signal, L858R (Fig. 3B) ([2]; AG1478 0.00016 uM): 80.0422 and 76.3461 and 104.596 and 91.474
- SIMPL2 signal, L858R (Fig. 3B) ([2]; AG1478 0.0008 uM): 78.2733 and 74.7356 and 79.963 and 75.2372
- SIMPL2 signal, L858R (Fig. 3B) ([2]; AG1478 0.004 uM): 44.1628 and 44.3476 and 45.9581 and 41.1531
- SIMPL2 signal, L858R (Fig. 3B) ([2]; AG1478 0.02 uM): 13.9069 and 29.2725 and 26.9756 and 25.1011
- SIMPL2 signal, L858R (Fig. 3B) ([2]; AG1478 0.1 uM): 16.4414 and 17.2863 and 10.8707 and 9.471
- SIMPL2 signal, L858R (Fig. 3B) ([2]; AG1478 0.5 uM): 3.505 and 4.482 and 4.93 and 3.98
- splicing between EGFR(WT) and SHC1 (western blot) [3]: reduced or abolished
- splicing between EGFR(L858R) and SHC1 (western blot) [4]: reduced or abolished
- SIMPL2 signal, control (Fig. 3B) ([5]; AG1478 6.4e-6 uM): 78.4402 and 101.308 and 94.2905 and 84.6604
- SIMPL2 signal, control (Fig. 3B) ([5]; AG1478 3.2e-5 uM): 100.905 and 96.8875 and 97.961 and 100.282
- SIMPL2 signal, control (Fig. 3B) ([5]; AG1478 0.00016 uM): 91.8672 and 101.363 and 100.305 and 106.707
- SIMPL2 signal, control (Fig. 3B) ([5]; AG1478 0.0008 uM): 94.4089 and 99.0424 and 101.553 and 109.943
- SIMPL2 signal, control (Fig. 3B) ([5]; AG1478 0.004 uM): 91.5435 and 102.468 and 100.85 and 97.0453
- SIMPL2 signal, control (Fig. 3B) ([5]; AG1478 0.02 uM): 77.4062 and 87.6599 and 89.9806 (2×)
- SIMPL2 signal, control (Fig. 3B) ([5]; AG1478 0.1 uM): 82.8606 and 100.092 and 105.918 and 87.8651
- SIMPL2 signal, control (Fig. 3B) ([5]; AG1478 0.5 uM): 102.547 and 94.4247 and 100.724 and 111.159
